Data published in patent publication US20080008760A1, “Functionalized carbon nanotubes, a process for preparing the same and their use in medicinal chemistry” (priority 2003, published 2008).

Legend:
[1] = system: Murine 3T3 cells (ATCC CCL-92); assay: Cytofluorometry: penetration of FITC functionalized nanotube into cells; assay type: cell-based; conditions: 1 μM, 5 μM and 10 μM, 1 hour
[2] = system: Murine 3T3 cells (ATCC CCL-92); assay: Fluorescent and confocal microscopy: penetration of FITC functionalized nanotubes into cells; assay type: cell-based; conditions: 1 μM, 5 μM and 10 μM; FIG. 3: 40 minutes incubation

SMILES: O=C(O)c1cc(NC(=S)NCCOCCOCCN2CCCC2)ccc1-c1c2ccc(=O)cc-2oc2cc(O)ccc12 [formula (L)]
- penetration into 3T3 cells (cytofluorometry) [1]: readily penetrate into 3T3 cells
- penetration into 3T3 cells (fluorescence microscopy, FIG. 3) [2]: have penetrated into 3T3 cells
